{
  "source": "patent US11813277B2",
  "about": "“Methods and agents for modulating inflammation” (The Regents of the University of California, priority 2018, dated 2023)",
  "key": {"HepG2 cells": {"system": "HepG2 cells", "assay": "Palmitate-driven respiration in intact HepG2 cells (Seahorse)", "assay_type": "cell-based", "procedure": "All respirometry studies were conducted in either a Seahorse XF96 or XFe96 Analyzer. All experiments were conducted at 37° C., and at pH 7.4 (intact cells) or 7.2 (permeabilized cells and isolated mitochondria). Calculation of respiratory parameters was made according to standard protocols (Divakaruni, A. S., Paradyse, A., Ferrick, D. A., Murphy, A. N., and Jastroch, M. (2014a) Analysis and interpretation of microplate-based oxygen consumption and pH data. Meth. Enzym 547, 509-54), and all rates were corrected for non-mitochondrial respiration/background signal by subtracting the oxygen consumption rate insensitive to rotenone plus antimycin A.\nPalmitate oxidation in intact cells (FIG. 1A, FIG. 1B) was assessed by measuring palmitate-driven respiration that was sensitive to low concentrations of etomoxir (Rogers, G. W., Nadanaciva, S., Swiss, R., Divakaruni, A. S., and Will, Y. (2014) Assessment of fatty acid beta oxidation in cells and isolated mitochondria. Curr. Protoc. Toxicol. 60, 25.3, 1-19). […] Respiration was measured under basal conditions as well as after injection of 2 μM oligomycin, two sequential additions of 1 μM FCCP, followed by 0.2 μM rotenone with 1 μM antimycin A. Etomoxir was added to the assay medium 30 min. prior to measurements of basal respiratory rates."}, "BMDMs [1]": {"system": "BMDMs", "assay": "ADP- or FCCP-stimulated respiration in permeabilized WT, Cpt1a-/- and Cpt2-/- BMDMs", "assay_type": "cell-based, mouse", "conditions": "200 μM etomoxir; independent of CPT-1 activity; also stated for Treg cells"}, "respiratory complex I": {"system": "respiratory complex I", "assay": "Respiration in double-permeabilized HepG2 cells", "assay_type": "biochemical", "conditions": "100 μM etomoxir", "procedure": "When permeabilized cells were treated with alamethicin to form pores of 3-6 kDa in the mitochondrial inner membrane (“double-permeabilized” cells) and complex I-mediated respiration was directly assessed (FIG. 6F), 10 μg/mL alamethicin was added at 37° C. 15 minutes prior to measurements (Divakaruni, A. S., Andreyev, A. Y., Rogers, G. W., and Murphy, A. N. (2017a) In situ measurements of mitochondrial matrix enzyme activities using plasma and mitochondrial membrane permeabilization agents. Anal. Biochem. 17, 30385-8). Double-permeabilized cells were offered 10 μM cytochrome c in the experimental medium and either 10 mM NADH or 10 mM succinate with 2 μM rotenone to drive respiration."}, "M(IL-4) polarization": {"system": "M(IL-4) polarization", "conditions": "cited from earlier work"}, "BMDMs [2]": {"system": "BMDMs", "assay": "Mass spectrometry-based metabolomics of BMDMs", "assay_type": "cell-based, mouse", "conditions": "IL-4", "procedure": "Cell. 173, 470-484. Briefly, cells were seeded in 6-well dishes at 1×10^6 cells/well. Cells were treated with IL-4 with and without etomoxir co-treatments (3 μM or 200 μM) similarly to other experiments. To extract intracellular metabolites, cells were briefly rinsed with cold 150 mM ammonium acetate (pH 7.3), followed by addition of 1 ml cold 80% MeOH on dry ice. Cells were detached with cell scrapers and suspensions transferred into centrifuge tubes. After rigorous mixing, the suspension was pelleted by centrifugation (1.3×104 rpm, 4° C.). The supernatant was transferred into a glass vial, metabolites were dried down under vacuum, and resuspended in 50% (v/v) acetonitrile including heavy isotope-labeled amino acids as internal standards (Chen, W. W., Freinkman, E. and Sabatini, D. M. (2017) Rapid immunopurification of mitochondria for metabolite profiling and absolute quantification of matrix metabolites. Nat. Protoc. 12, 2215-2231).\nFor the mass spectrometry-based analysis of the sample, 5 μL were injected onto a Luna NH2 (150 mm×2 mm, Phenomenex) column. The samples were analyzed with an UltiMate 3000RSLC (Thermo Scientific) coupled to a Q Exactive mass spectrometer (Thermo Scientific). The Q Exactive was run with polarity switching (+3.50 kV/−3.50 kV) in full scan mode with an m/z range of 65-975. Separation was achieved using A) 5 mM NH4AcO (pH 9.9) and B) ACN. The gradient started with 15% A) going to 90% A) over 18 min, followed by an isocratic step for 9 min and reversal to the initial 15% A) for 7 min. Metabolites were quantified with El Maven (v0.2.4) using accurate mass measurements (≤3 ppm) and retention times of pure standards. Data analysis was performed using the statistical language R. For the PCA and clustering analyses, only metabolites with an ANOVA p-value≤0.05 were incorporated. For visualization using heatmaps, metabolites were scaled across samples but not across metabolites. To assess what metabolites contributed the most to a given metabolic phenotype, we calculated the correlation between the loading vector for a given metabolite and the score vector of a given sample for PCs 1 and 2."}},
  "note": "Entries after “also recorded” stand apart in the source; their conditions may differ.",
  "data": [
    {"compound": "CCOC(=O)[C@@]1(CCCCCCOc2ccc(Cl)cc2)CO1", "note": "[etomoxir]", "values": [
      {"measurement": "FCCP-stimulated respiration", "setting": "HepG2 cells; 1 μM etomoxir", "result": "largely sensitive"},
      {"measurement": "half-maximal inhibitory concentration (EC50) for uncoupler-stimulated respiration", "setting": "HepG2 cells; intact HepG2, albumin-buffered palmitate", "result": "sub-micromolar"},
      {"measurement": "phosphorylating and uncoupled respiration", "setting": "BMDMs [1]", "result": "pronounced off-target effect on phosphorylating respiration with a secondary effect at uncoupled respiration"},
      {"measurement": "oxidation of NADH", "setting": "respiratory complex I", "result": "inhibit oxidation of NADH"},
      {"measurement": "blocking M(IL-4) polarization in Cpt2-/- BMDMs vs WT", "setting": "M(IL-4) polarization; 200 μM etomoxir", "result": "equally effective"},
      {"measurement": "IL-4-associated markers / IL-4 response", "setting": "M(IL-4) polarization; etomoxir 10 μM to 100 μM", "result": "unaffected; also recorded: fail to affect"},
      {"measurement": "intracellular pantothenate levels", "setting": "BMDMs [2]; 3 μM etomoxir", "result": "no change"},
      {"measurement": "metabolite profile (PCA)", "setting": "BMDMs [2]; 3 μM etomoxir", "result": "no appreciable change"},
      {"measurement": "intracellular pantothenate levels, increase", "setting": "BMDMs [2]; 200 μM etomoxir", "result": "three-fold"},
      {"measurement": "metabolite composition (PCA)", "setting": "BMDMs [2]; 200 μM etomoxir", "result": "profound change"}
    ]}
  ]
}
